The target of assay [1] is T1, hASBT (Homo sapiens, UniProt Q12908).
T1 sequence (Q12908 1-348): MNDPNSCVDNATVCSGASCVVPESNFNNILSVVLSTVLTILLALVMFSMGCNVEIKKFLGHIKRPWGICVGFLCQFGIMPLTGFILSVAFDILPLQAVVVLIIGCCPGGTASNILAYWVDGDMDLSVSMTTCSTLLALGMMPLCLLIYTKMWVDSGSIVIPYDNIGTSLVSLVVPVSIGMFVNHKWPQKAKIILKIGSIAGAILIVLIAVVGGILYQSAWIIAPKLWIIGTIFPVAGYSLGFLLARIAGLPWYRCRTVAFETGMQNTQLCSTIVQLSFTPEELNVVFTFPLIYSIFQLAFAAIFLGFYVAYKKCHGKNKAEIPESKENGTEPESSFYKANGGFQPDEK
The assay is described as follows: competition of 3H-TCA uptake, transfected COS-7 cells. It is filed as cell-based. The conditions noted are these: 10 μM 3H-TCA, Na+ medium, 10 min.

Assay [2] has as its target T2, skAsbt (Leucoraja erinaceus, UniProt I4CJQ7).
T2 sequence (I4CJQ7 1-393): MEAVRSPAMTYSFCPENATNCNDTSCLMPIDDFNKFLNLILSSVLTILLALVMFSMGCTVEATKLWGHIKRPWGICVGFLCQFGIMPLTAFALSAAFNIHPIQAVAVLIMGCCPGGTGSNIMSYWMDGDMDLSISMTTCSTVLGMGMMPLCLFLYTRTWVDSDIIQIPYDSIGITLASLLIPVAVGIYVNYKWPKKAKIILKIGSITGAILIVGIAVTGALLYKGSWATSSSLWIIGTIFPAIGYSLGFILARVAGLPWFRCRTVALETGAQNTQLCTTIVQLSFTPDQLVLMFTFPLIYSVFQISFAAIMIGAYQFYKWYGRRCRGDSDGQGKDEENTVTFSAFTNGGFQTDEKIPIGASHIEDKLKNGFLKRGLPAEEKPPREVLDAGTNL
The assay is described as above. The conditions noted are these: 10 μM 3H-TCA, Na+ medium, 10 min. In kind it is cell-based.

Counter-ions that a name gives are not always drawn.

Consider `C[C@H](CCC(=O)NCCS(=O)(=O)O)[C@H]1CC[C@H]2[C@@H]3CC[C@@H]4C[C@H](O)CC[C@]4(C)[C@H]3CC[C@]12C` [taurolithocholic acid], for which the “inhibition of uptake at 100 μM” value in assay [1] is “significantly reduced ^3H-TCA transport activity in both skAsbt and hASBT”; in assay [2], “significantly reduced ^3H-TCA transport activity in both skAsbt and hASBT”. With `O=C1OC(c2ccc(O)c(S(=O)(=O)O)c2)(c2ccc(O)c(S(=O)(=O)O)c2)c2c(Br)c(Br)c(Br)c(Br)c21` [bromosulfophtalein], the “inhibition of uptake at 100 μM” value in assay [1] and in assay [2] was “bromosulfophtalein significantly inhibited both transporters” each time. For `C[C@H](CCCC(CO)COS(=O)(=O)O)[C@H]1CC[C@H]2[C@@H]3[C@H](O)C[C@H]4C[C@H](O)CC[C@]4(C)[C@H]3C[C@H](O)[C@]12C` (stereo partly drawn) [5α-cyprinol sulfate], the “inhibition of uptake at 100 μM” value in assay [1] was “significantly reduced ^3H-TCA transport activity in both skAsbt and hASBT”; in assay [2], “significantly reduced ^3H-TCA transport activity in both skAsbt and hASBT”. Regarding `C[C@H](CCC(=O)NCCS(=O)(=O)O)[C@H]1CC[C@H]2[C@@H]3CC[C@@H]4C[C@H](OS(=O)(=O)O)CC[C@]4(C)[C@H]3CC[C@]12C` [taurolithocholic acid-3-sulfate], the “inhibition of uptake at 100 μM” value in assay [2] was “significantly reduced ^3H-TCA transport activity in both skAsbt and hASBT”. Regarding `C[C@H](CCC(=O)NCCS(=O)(=O)O)[C@H]1CC[C@H]2[C@@H]3[C@@H](O)C[C@@H]4C[C@H](O)CC[C@]4(C)[C@H]3CC[C@]12C` [TUDCA], the “inhibition of uptake at 100 μM” value in assay [1] is “TUDCA effectively reduced ^3H-TCA transport activity in hASBT but not in skAsbt”.

`C[C@H](CCC(=O)NCC(=O)O)[C@H]1CC[C@H]2[C@@H]3[C@H](O)C[C@@H]4C[C@H](O)CC[C@]4(C)[C@H]3CC[C@]12C` [GCDCA]: the “inhibition of uptake at 100 μM” value in assay [1] was “significantly reduced ^3H-TCA transport activity in both skAsbt and hASBT”; in assay [2], “significantly reduced ^3H-TCA transport activity in both skAsbt and hASBT”. For the compound `C[C@H](CCCOS(=O)(=O)O)[C@H]1CC[C@H]2[C@@H]3[C@H](O)C[C@H]4C[C@H](O)CC[C@]4(C)[C@H]3C[C@H](O)[C@]12C` [5α-PZS], the “inhibition of uptake at 100 μM” value was “significantly reduced ^3H-TCA transport activity in both skAsbt and hASBT” in assay [1]; “significantly reduced ^3H-TCA transport activity in both skAsbt and hASBT” in assay [2]. For `C[C@H](CCC(=O)NCCS(=O)(=O)O)[C@H]1CC[C@H]2[C@@H]3[C@H](O)C[C@@H]4C[C@H](O)CC[C@]4(C)[C@H]3CC[C@]12C` [TCDCA], the “inhibition of uptake at 100 μM” value in assay [1] was “significantly reduced ^3H-TCA transport activity in both skAsbt and hASBT”; in assay [2], “significantly reduced ^3H-TCA transport activity in both skAsbt and hASBT”.

The values above are taken from publication PMC3540847 (Journal of Lipid Research, 2012).
